Reference: patent US8980587B2, “Process for producing reveromycin A or a synthetic intermediate thereof, process for producing compounds containing a spiroketal ring and novel antineoplastics, fungicides and therapeutic agents for bone disorders” (RIKEN, priority 2010, dated 2015)
Values after ≈ are worked out from the molar mass of the structure shown. Where two headings read alike, the source gives them in different places.

How the values were obtained:
[1] = target: T1, Isoleucyl tRNA synthetase (Homo sapiens, UniProt P41252); assay: Inhibitory activity against isoleucyl tRNA synthetase; assay type: biochemical; settings: for IC50: HT1080 cell lysate, [3H]isoleucine, 25° C., 20 minutes, read-out: IRS IC50 (converted)
T1 construct: 10 μg protein (HT1080 cell lysate); endogenous in cells; host or cells: HT1080 cell lysate
T1 sequence (P41252 1-1262): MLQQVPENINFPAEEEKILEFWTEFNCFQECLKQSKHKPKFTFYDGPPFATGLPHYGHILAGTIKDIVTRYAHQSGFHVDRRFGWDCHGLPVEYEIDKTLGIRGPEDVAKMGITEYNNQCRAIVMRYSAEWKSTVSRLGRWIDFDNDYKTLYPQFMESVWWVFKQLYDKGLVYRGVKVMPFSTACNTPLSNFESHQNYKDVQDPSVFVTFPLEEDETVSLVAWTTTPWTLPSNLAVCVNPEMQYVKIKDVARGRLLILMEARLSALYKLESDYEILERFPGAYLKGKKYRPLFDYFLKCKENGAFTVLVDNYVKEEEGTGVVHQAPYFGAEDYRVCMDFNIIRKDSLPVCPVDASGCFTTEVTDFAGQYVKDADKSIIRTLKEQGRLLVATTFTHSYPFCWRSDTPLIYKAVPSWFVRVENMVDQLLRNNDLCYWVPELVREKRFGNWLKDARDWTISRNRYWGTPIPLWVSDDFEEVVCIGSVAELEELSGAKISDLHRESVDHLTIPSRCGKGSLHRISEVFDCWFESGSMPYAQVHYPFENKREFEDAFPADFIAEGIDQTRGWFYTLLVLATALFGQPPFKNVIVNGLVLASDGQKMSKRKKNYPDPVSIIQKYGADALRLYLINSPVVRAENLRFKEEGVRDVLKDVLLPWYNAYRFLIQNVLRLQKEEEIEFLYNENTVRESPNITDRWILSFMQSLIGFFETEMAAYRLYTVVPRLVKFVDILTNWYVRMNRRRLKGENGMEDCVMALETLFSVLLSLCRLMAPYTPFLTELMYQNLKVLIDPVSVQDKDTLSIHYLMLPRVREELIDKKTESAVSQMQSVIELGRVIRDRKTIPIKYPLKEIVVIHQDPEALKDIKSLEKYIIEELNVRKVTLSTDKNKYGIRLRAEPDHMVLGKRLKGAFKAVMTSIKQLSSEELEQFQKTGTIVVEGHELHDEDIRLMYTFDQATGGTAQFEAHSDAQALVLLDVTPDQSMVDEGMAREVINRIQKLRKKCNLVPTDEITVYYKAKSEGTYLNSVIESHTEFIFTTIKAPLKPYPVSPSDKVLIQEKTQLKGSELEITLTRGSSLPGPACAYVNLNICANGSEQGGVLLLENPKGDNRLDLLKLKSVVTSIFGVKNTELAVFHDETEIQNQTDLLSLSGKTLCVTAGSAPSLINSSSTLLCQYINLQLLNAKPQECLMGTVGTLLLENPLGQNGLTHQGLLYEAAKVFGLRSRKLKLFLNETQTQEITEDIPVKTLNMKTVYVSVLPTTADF
Method: To a solution for enzymatic reaction [20 mM imidazole, pH 7.5, 75 mM MgCl2, 0.5 mM DTT, 1 U/ml tRNA (E. coli origin, manufactured by Sigma), 3 mM ATP, 1 μM isoleucine, 10 μCi/ml [^3H]isoleucine (manufactured by GE Healthcare), 10 μg protein (HT1080 cell lysate)], each of the agents in Table 5 was added at 1% (v/v) so as to attain a total amount of 100 μl and a reaction was carried out at 25° C. for 20 minutes. One mg/ml BSA solution (400 μl) and 10% TCA solution (500 μl) were then added thereto to terminate the reaction and left to stand at 4° C. overnight. A precipitate obtained by a centrifugal operation was transferred onto GF-C filter (manufactured by Whatman), washed three times with 5% TCA solution, followed by drying the filter. Two milliliters of aquasol-2 (manufactured by PerkinElmer) and the filter were placed in a vial and vigorously stirred, and then the amount of [^3H]isoleucine was measured by a liquid scintillation counter (manufactured by Beckman) to determine a rate of enzyme activity.

osteoclasts = assay: Growth inhibitory activity against osteoclast (TRAP positive multinucleated cell count); assay type: cell-based, mouse; settings: for IC50: Osteoclast, read-out: OC IC50
Method: Bone marrow cells were harvested from thigh bone and shin bone of five-week male ddY mouse (manufactured by Japan SLC, Inc.), seeded in a type I collagen coated plate (manufactured by IWAKI) in a culture medium in which α-MEM medium (manufactured by Sigma-Aldrich) was added with 10% fetal bovine serum, 0.5% penicillin/streptomycin solution, 50 ng/ml human M-CSF (Leukoprol, manufactured by Kyowa Hakko), and 1 ng/ml human TGF-β1 (manufactured by R&D Systems), and maintained at 37° C. under a humidified culture of 5% CO2 for 3 days. Cells were then washed twice with PBS and then cells adhered on the plate were used as bone marrow macrophage cells. Bone marrow macrophage cells were further maintained in a culture medium in which α-MEM medium was added with 10% fetal-bovine serum, 0.5% penicillin/streptomycin solution, 50 ng/ml human M-CSF, 50 ng/ml human soluble RANKL (manufactured by Peprotech) at 37° C. under a humidified culture of 5% CO2 for 3 days to differentiate into osteoclasts.
Each of the agents in Table 5 was added to osteoclasts at 0.5% (v/v) and maintained at 37° C. under a humidified culture of 5% CO2 for 24 hours. Subsequently, cells were treated with PBS solution containing 3.7% formalin at room temperature for 30 minutes. After the solution was removed, the cells were further treated with acetone/ethanol solution (1:1 vol/vol) at room temperature for one minute and the solution was removed to dry the cells. Immobilized cells were subjected to a reaction in TRAP solution [50 mM sodium tartrate, 90 mM sodium acetate, 0.01% naphthol AS-MX phosphate (manufactured by Sigma), 0.05% fast red violet LB salt (manufactured by Sigma), pH 5.0] at room temperature for 30 minutes and then washed with distilled water. The number of TRAP positive multinucleated osteoclasts was counted and a rate of survival was determined.

CCCC[C@@]1(OC(=O)CCC(=O)O)CC[C@]2(CC[C@H](C)[C@@H](C/C=C(C)/C=C/[C@H](O)[C@@H](C)/C=C/C(=O)O)O2)O[C@H]1/C=C/C(C)=C/C(=O)O [RM-A, Reveromycin A]
IC50 [1]: 9.38 nM
IC50 (osteoclasts; Mus musculus, 24 h): 0.06 µg/mL (≈ 0.0908 µM)

CCCCCC[C@@]1(OC(=O)CCC(=O)O)CC[C@]2(CC[C@H](C)[C@@H](C/C=C(C)/C=C/[C@H](O)[C@@H](C)/C=C/C(=O)O)O2)O[C@H]1/C=C/C(C)=C/C(=O)O [RM-E]
IC50 [1]: 4.06 nM
IC50 (osteoclasts; Mus musculus, 24 h): 0.1 µg/mL (≈ 0.145 µM)
growth inhibiting actions against osteoclast (in words) (osteoclasts; summary of Table 5): exhibited growth inhibiting actions against osteoclast

CCCC[C@H]1CC[C@]2(CC[C@H](C)[C@@H](C/C=C(C)/C=C/[C@H](O)[C@@H](C)/C=C/C(=O)OCC)O2)O[C@H]1/C=C/C(C)=C/C(=O)O [RM-T ethyl-ester]
IC50 [1]: 349 nM
IC50 (osteoclasts; mouse bone marrow derived osteoclasts, 24 hours, rate of survival): 6 µg/mL (≈ 10.5 µM)

CCCCC1CCC2(CCC(C)C(C/C=C(C)/C=C/C(O)C(C)/C=C/C(=O)O)O2)OC1/C=C/C(C)=C/C(=O)O (stereo not shown) [RM-T]
IC50 [1]: 0.367 nM
enzyme inhibiting activity against the target molecule IRS (in words) ([1]; as compared with RM-A): higher
IC50 (osteoclasts; Mus musculus, 24 h): 6.2 µg/mL (≈ 11.4 µM)
